Assay results from patent US20070185183A1, “Indolinesulphanilic acid amides as ppar-delta modulators” (Bayer HealthCare AG, priority 2003, published 2007).

Molecular target: T1, human PPARδ receptor (Homo sapiens, UniProt Q03181)
T1 construct: expressed in transfected cells
T1 sequence (Q03181 211-439 limits assumed): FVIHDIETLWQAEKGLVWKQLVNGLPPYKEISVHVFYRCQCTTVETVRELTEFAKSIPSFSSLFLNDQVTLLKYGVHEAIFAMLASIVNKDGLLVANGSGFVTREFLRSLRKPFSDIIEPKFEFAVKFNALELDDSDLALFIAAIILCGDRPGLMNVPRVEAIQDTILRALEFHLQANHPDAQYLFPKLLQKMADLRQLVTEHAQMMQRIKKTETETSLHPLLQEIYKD
Test: Cellular transactivation assay (GAL4-PPARδ chimera, luciferase reporter)
Assay type: cell-based
Details: GAL4-PPARδ chimera stably expressed in CHO cells, 24 hours stimulation
Source text: A cellular assay is used to identify activators of the peroxisome proliferator-activated receptor delta (PPAR-delta).
Since mammalian cells contain different endogenous nuclear receptors which may complicate an unambiguous interpretation of the results, an established chimera system is used in which the ligand binding domain of the human PPARδ receptor is fused to the DNA binding domain of the yeast transcription factor GAL4. The resulting GAL4-PPARδ chimera is co-transfected and stably expressed in CHO cells having a reporter construct.
The GAL4-PPARδ expression construct contains the ligand binding domain of PPARδ (amino acids […]), which is PCR-amplified and cloned into the vector pcDNA3.1. This vector already contains the GAL4 DNA binding domain (amino acids 1-147) of the vector pFC2-dbd (Stratagene). […]
CHO (chinese hamster ovary) cells are sown in CHO-A-SFM medium (GIBCO), supplemented by 2.5% foetal calf serum and 1% penicillin/streptomycin (GIBCO), at a cell density of 2×10^3 cells per well in a 384-well plate (Greiner). […] After a stimulation period of 24 hours, the luciferase activity is measured using a video camera. The relative light units measured give, as a function of the substance concentration, a sigmoidal stimulation curve. The EC50 values are calculated using the computer program GraphPad PRISM (Version 3.02).

CN(CC(=O)O)c1ccc(S(=O)(=O)N2CC(C)(C)c3cc(-c4ccc(C(F)(F)F)cc4)ccc32)cc1 [Working Example 1, N-[4-({3,3-Dimethyl-5-[4-(trifluoromethyl)phenyl]-2,3-dihydro-1H-indol-1-yl}sulphonyl)phenyl]-N-methylglycine]
EC50: 8.5 nM
